From US6511997B1, “Aminopyrazole derivatives” (Teikoku Hormone Mfg. Co., Ltd., priority 1998, dated 2003) come the findings set out here.

Take `COc1ccccc1CC(=O)N(C)c1c(-c2ccncc2)c(-c2ccc(F)cc2)nn1C` [Example 131, 3-(4-Fluorophenyl)-5-[N-methyl-N-(2-methoxyphenylacetyl)amino]-1-methyl-4-(4-pyridyl)pyrazole]: the melting point was in the range of 143.6 to 145.3 °C. The value for `Cn1nc(-c2ccc(F)cc2)c(-c2ccncc2)c1NC(=O)Cc1ccc(F)cc1` [Example 62, 3-(4-Fluorophenyl)-5-(4-fluorophenylacetylamino)-1-methyl-4-(4-pyridyl)pyrazole] was 217.3 to 219.7 °C; that for `CN(C(=O)Cc1ccccc1)c1c(-c2ccncc2)c(-c2ccc(F)cc2)nn1C` [Example 120, 3-(4-Fluorophenyl)-1-methyl-5-(N-methyl-N-phenylacetylamino)-4-(4-pyridyl)pyrazole] was 168.5 to 171.2 °C.
